Measured values reported in patent US11767341B2, “Lincosamide antibiotics and uses thereof” (President and Fellows of Harvard College, priority 2017, dated 2023).
Values after ≈ are worked out from the molar mass of the structure shown. Where two headings read alike, the source gives them in different places.

What was measured:
Assay in all cases: MIC determination
Assay type in all cases: cell-based
[1] = test system: E. coli ATCC 25922; conditions: Escherichia coli
[2] = test system: S. aureus ATCC 29213; conditions: Staphylococcus aureus
[3] = test system: E. faecalis ATCC 29212; conditions: Enterococcus faecalis
[4] = test system: S. pneumoniae ATCC 49619; conditions: Streptococcus pneumoniae, ATCC49619; S. pneumoniae ATCC 49619; read-out: MIC
[5] = test system: S. pyogenes ATCC 19615; conditions: Streptococcus pyogenes, ATCC19615; S. pyogenes ATCC 19615; read-out: MIC
[6] = test system: K. pneumoniae ATCC 10031; conditions: Klebsiella pneumoniae, ATCC10031
[7] = test system: E. coli MP-9 ΔTolC; conditions: Escherichia coli
[8] = test system: S. aureus MP-549 msr(a) USA 300; conditions: Staphylococcus aureus, USA300, S. aureus MP-549 msr(a) USA 300
[9] = test system: E. coli MP-74 LptD mutant; conditions: Escherichia coli
[10] = test system: H. influenzae ATCC 49247; conditions: Haemophilus influenzae, ATCC49247
[11] = test system: S. aureus BAA 977 iErmA; conditions: Staphylococcus aureus, BAA977
[12] = ATCC25922, E. coli ATCC 25922, read-out: MIC
[13] = ATCC29213, S. aureus ATCC 29213, read-out: MIC
[14] = H. influenzae ATCC 49247, read-out: MIC
[15] = K. pneumoniae ATCC 10031, read-out: MIC

SMILES	MIC [1, 12] [µg/mL]	MIC [2, 13] [µg/mL]	MIC ([3]; ATCC29212, read-out: MIC) [µg/mL]	MIC [4] [µg/mL]	MIC [5] [µg/mL]	MIC [6] [µg/mL]	MIC ([1]; ATCC25922) [µg/mL]	MIC [7] [µg/mL]	MIC ([3]; ATCC29212) [µg/mL]	MIC [8] [µg/mL]	MIC [9] [µg/mL]	MIC [10] [µg/mL]	MIC [11] [µg/mL]	MIC [10, 14] [µg/mL]	MIC [6, 15] [µg/mL]	MIC ([2]; ATCC29213) [µg/mL]
CSC1O[C@H]([C@H](NC(=O)[C@@H]2[C@@H]3OCC=CC[C@H]3CN2C2CC2)[C@H](C)Sc2ccc(-c3cccnc3)cc2)C(O)C(O)[C@H]1O (some centres unmarked) [FSA-214009a]	> 64	64 (≈ 102 µM)	> 64	4 (≈ 6.37 µM)	4 (≈ 6.37 µM)	–	–	–	–	–	–	–	–	–	–	–
CCOC(=O)CCN1C[C@@H]2CC=CCO[C@H]2[C@H]1C(=O)N[C@H]([C@H](C)Sc1ccc(-c2cccnc2)cc1)[C@H]1OC(SC)[C@H](O)[C@H](O)C1O (some centres unmarked) [FSA-214009b]	> 64	> 64	> 64	32 (≈ 46.5 µM)	8 (≈ 11.6 µM)	–	–	–	–	–	–	–	–	–	–	–
CSC1O[C@H]([C@H](NC(=O)[C@H]2NC[C@@H]3CC=CCO[C@@H]32)[C@H](C)Cl)C(O)[C@@H](O)[C@H]1O (some centres unmarked) [FSA-504059]	–	2 (≈ 4.58 µM)	–	0.25 (≈ 0.572 µM)	0.12 (≈ 0.275 µM)	> 64	> 64	> 64	32 (≈ 73.2 µM)	2 (≈ 4.58 µM)	> 64	> 64	–	–	–	–
CSC1O[C@H]([C@H](NC(=O)[C@H]2NC[C@@H]3CCCCO[C@@H]32)[C@H](C)Cl)C(O)[C@@H](O)[C@H]1O (some centres unmarked) [FSA-504062]	–	2 (≈ 4.56 µM)	32 (≈ 72.9 µM)	0.25 (≈ 0.57 µM)	0.12 (≈ 0.273 µM)	> 64	> 64	> 64	–	1 (≈ 2.28 µM)	> 64	> 64	–	–	–	–
CSC1O[C@H]([C@H](NC(=O)[C@H]2NC[C@@H]3CC(c4ccc(-c5ccccc5)cc4)=CCO[C@H]32)[C@H](C)Cl)C(O)[C@@H](O)[C@H]1O (some centres unmarked) [FSA-510001]	–	2 (≈ 3.39 µM)	–	4 (≈ 6.79 µM)	2 (≈ 3.39 µM)	> 64	> 64	> 64	8 (≈ 13.6 µM)	–	8 (≈ 13.6 µM)	–	2 (≈ 3.39 µM)	16 (≈ 27.2 µM)	–	–
CSC1O[C@H]([C@H](NC(=O)[C@H]2NC[C@@H]3C=C(C#Cc4ccccc4)CCO[C@@H]23)[C@H](C)Cl)C(O)[C@@H](O)[C@H]1O (some centres unmarked) [FSA-510002]	–	0.5 (≈ 0.931 µM)	2 (≈ 3.72 µM)	0.25 (≈ 0.465 µM)	0.25 (≈ 0.465 µM)	–	> 64	> 64	–	–	32 (≈ 59.6 µM)	32 (≈ 59.6 µM)	0.25 (≈ 0.465 µM)	–	64 (≈ 119 µM)	–
CSC1O[C@H]([C@H](NC(=O)[C@H]2NC[C@@H]3C=C(C#Cc4cccc(F)c4)CCO[C@@H]23)[C@H](C)Cl)C(O)[C@@H](O)[C@H]1O (some centres unmarked) [FSA-510003]	–	0.5 (≈ 0.901 µM)	1 (≈ 1.8 µM)	0.25 (≈ 0.45 µM)	0.25 (≈ 0.45 µM)	–	> 64	> 64	–	–	32 (≈ 57.7 µM)	–	0.25 (≈ 0.45 µM)	16 (≈ 28.8 µM)	16 (≈ 28.8 µM)	–
CSC1O[C@H]([C@H](NC(=O)[C@H]2NC[C@@H]3CC(c4cccc5cnccc45)=CCO[C@H]32)[C@H](C)Cl)C(O)[C@@H](O)[C@H]1O (some centres unmarked) [FSA-510006]	–	8 (≈ 14.2 µM)	16 (≈ 28.4 µM)	1 (≈ 1.77 µM)	0.5 (≈ 0.886 µM)	> 64	> 64	> 64	–	–	64 (≈ 113 µM)	> 64	16 (≈ 28.4 µM)	–	–	–
CSC1O[C@H]([C@H](NC(=O)[C@H]2NC[C@@H]3CC(NC4CC4)CCO[C@H]32)[C@H](C)Cl)C(O)[C@@H](O)[C@H]1O (some centres unmarked) [FSA-510011]	–	32 (≈ 64.8 µM)	–	8 (≈ 16.2 µM)	2 (≈ 4.05 µM)	> 64	> 64	> 64	> 64	–	> 64	> 64	32 (≈ 64.8 µM)	–	–	–
CSC1O[C@H]([C@H](NC(=O)[C@H]2NC[C@@H]3CC(NCc4ccccc4F)CCO[C@H]32)[C@H](C)Cl)C(O)C(O)[C@H]1O (some centres unmarked) [FSA-510072]	–	64 (≈ 114 µM)	–	30 (≈ 53.4 µM)	8 (≈ 14.2 µM)	> 64	> 64	> 64	> 64	64 (≈ 114 µM)	> 64	> 64	–	–	–	–
CSC1O[C@H]([C@H](NC(=O)[C@H]2NC[C@@H]3CC(NCc4cccc(F)c4)CCO[C@H]32)[C@H](C)Cl)C(O)[C@@H](O)[C@H]1O (some centres unmarked) [FSA-510073]	–	16 (≈ 28.5 µM)	–	8 (≈ 14.2 µM)	2 (≈ 3.56 µM)	> 64	> 64	> 64	> 64	16 (≈ 28.5 µM)	> 64	> 64	–	–	–	–
CSC1O[C@H]([C@H](NC(=O)[C@H]2NC[C@@H]3CC(NCc4ccc(F)cc4)CCO[C@H]32)[C@H](C)Cl)C(O)[C@@H](O)[C@H]1O (some centres unmarked) [FSA-510074]	–	64 (≈ 114 µM)	–	32 (≈ 56.9 µM)	8 (≈ 14.2 µM)	> 64	> 64	> 64	> 64	64 (≈ 114 µM)	> 64	> 64	–	–	–	–
CSC1O[C@H]([C@H](NC(=O)[C@H]2NC[C@@H]3CC(c4ccc(C)cc4)=CCO[C@H]32)[C@H](C)Cl)C(O)[C@@H](O)[C@H]1O (some centres unmarked) [FSA-511019]	> 64	–	4 (≈ 7.59 µM)	0.25 (≈ 0.474 µM)	0.125 (≈ 0.237 µM)	–	–	32 (≈ 60.7 µM)	–	0.5 (≈ 0.949 µM)	64 (≈ 121 µM)	64 (≈ 121 µM)	–	–	> 64	0.5 (≈ 0.949 µM)
COc1ccc(C2=CCO[C@@H]3[C@H](CN[C@@H]3C(=O)N[C@H]([C@H](C)Cl)[C@H]3OC(SC)[C@H](O)[C@H](O)C3O)C2)cc1 (some centres unmarked) [FSA-511020]	> 64	0.5 (≈ 0.921 µM)	4 (≈ 7.37 µM)	≤ 0.06	≤ 0.06	–	–	64 (≈ 118 µM)	–	1 (≈ 1.84 µM)	64 (≈ 118 µM)	64 (≈ 118 µM)	–	–	> 64	–
CSC1O[C@H]([C@H](NC(=O)[C@H]2NC[C@@H]3CC(c4ccc(C#N)cc4)=CCO[C@H]32)[C@H](C)Cl)C(O)[C@@H](O)[C@H]1O (some centres unmarked) [FSA-511033]	> 64	0.5 (≈ 0.929 µM)	2 (≈ 3.72 µM)	≤ 0.06	≤ 0.06	64 (≈ 119 µM)	–	32 (≈ 59.5 µM)	–	1 (≈ 1.86 µM)	64 (≈ 119 µM)	64 (≈ 119 µM)	–	–	–	–
CSC1O[C@H]([C@H](NC(=O)[C@H]2NC[C@@H]3C[C@@H](C4CCNCC4)CCO[C@H]32)[C@H](C)Cl)C(O)[C@@H](O)[C@H]1O (some centres unmarked) [FSA-512011]	–	8 (≈ 15.3 µM)	64 (≈ 123 µM)	1 (≈ 1.92 µM)	4 (≈ 7.66 µM)	–	> 256	> 256	–	8 (≈ 15.3 µM)	> 256	> 256	–	–	–	–
CSC1O[C@H]([C@H](NC(=O)[C@H]2NC[C@@H]3C[C@@H](C4CCN(C)CC4)CCO[C@H]32)[C@H](C)Cl)C(O)[C@@H](O)[C@H]1O (some centres unmarked) [FSA-512012]	–	8 (≈ 14.9 µM)	64 (≈ 119 µM)	1 (≈ 1.87 µM)	4 (≈ 7.46 µM)	–	> 256	> 256	–	8 (≈ 14.9 µM)	> 256	> 256	–	–	–	–
CSC1O[C@H]([C@H](NC(=O)[C@H]2NC[C@@H]3C=C(c4ccc(C)cc4)CCO[C@@H]23)[C@H](C)Cl)C(O)[C@@H](O)[C@H]1O (some centres unmarked) [FSA-512075]	> 256	0.5 (≈ 0.949 µM)	2 (≈ 3.79 µM)	0.25 (≈ 0.474 µM)	0.25 (≈ 0.474 µM)	–	–	32 (≈ 60.7 µM)	–	0.25 (≈ 0.474 µM)	64 (≈ 121 µM)	64 (≈ 121 µM)	–	–	–	–
COc1ccc(C2=C[C@H]3CN[C@H](C(=O)N[C@H]([C@H](C)Cl)[C@H]4OC(SC)[C@H](O)[C@H](O)C4O)[C@@H]3OCC2)cc1 (some centres unmarked) [FSA-512076]	> 256	0.25 (≈ 0.46 µM)	2 (≈ 3.68 µM)	≤ 0.12	≤ 0.12	–	–	64 (≈ 118 µM)	–	0.25 (≈ 0.46 µM)	64 (≈ 118 µM)	–	–	128 (≈ 236 µM)	–	–
CSC1O[C@H]([C@H](NC(=O)[C@H]2NC[C@@H]3C=C(c4ccc(C#N)cc4)CCO[C@@H]23)[C@H](C)Cl)C(O)[C@@H](O)[C@H]1O (some centres unmarked) [FSA-512077]	> 256	0.5 (≈ 0.929 µM)	1 (≈ 1.86 µM)	≤ 0.12	≤ 0.12	–	–	16 (≈ 29.7 µM)	–	0.25 (≈ 0.465 µM)	64 (≈ 119 µM)	–	–	128 (≈ 238 µM)	–	–
CSC1O[C@H]([C@H](NC(=O)[C@H]2NC[C@@H]3C[C@@H](c4ccc(C)cc4)CCO[C@H]32)[C@H](C)Cl)C(O)[C@@H](O)[C@H]1O (some centres unmarked) [FSA-512079b]	> 128	–	1 (≈ 1.89 µM)	–	≤ 0.12	16 (≈ 30.2 µM)	–	8 (≈ 15.1 µM)	–	0.5 (≈ 0.945 µM)	16 (≈ 30.2 µM)	16 (≈ 30.2 µM)	–	–	–	0.5 (≈ 0.945 µM)
CSC1O[C@H]([C@H](NC(=O)[C@H]2NC[C@@H]3C[C@H](c4ccc(C)cc4)CCO[C@H]32)[C@H](C)Cl)C(O)[C@@H](O)[C@H]1O (some centres unmarked) [FSA-512079c]	> 128	–	2 (≈ 3.78 µM)	–	≤ 0.12	16 (≈ 30.2 µM)	–	8 (≈ 15.1 µM)	–	0.5 (≈ 0.945 µM)	16 (≈ 30.2 µM)	16 (≈ 30.2 µM)	–	–	–	0.5 (≈ 0.945 µM)
